Test results reported in ChEMBL document CHEMBL3885861, “Open TG-GATES”.

Organism: Rattus norvegicus
Experiment: Open TG-GATES - Regimen: Daily Repeat
Assay type: toxicity, organism-based, Sprague-Dawley
Parameters: regimen Daily Repeat, gender Male, age 6 weeks
Conditions: in vivo, po, route gavage; for APTT / Bas / Eos / Fbg / Hb / Ht / Lym / MCH / MCHC / MCV / Mono / Neu / PT / Plat / RBC / Ret / WBC: tissue Blood; for KIDNEY_L / KIDNEY_R / KIDNEY_TOTAL: tissue Kidney; for LIVER: tissue Liver; for A/G / ALP / ALT / AST / BUN / CRE / Ca / Cl / DBIL / GLC / IP / K / LDH / Na / PL / RALB / TBIL / TC / TG / TP / gamma-GTP: tissue Plasma
[1] = 300 mg/kg, 72 h, dose level Middle, time 3 day
[2] = 300 mg/kg, […], dose level Middle, time 7 day
[3] = 300 mg/kg, […], dose level Middle, time 14 day
[4] = 300 mg/kg, […], dose level Middle, time 28 day
[5] = 1000 mg/kg, 72 h, dose level High, time 3 day
[6] = 1000 mg/kg, […], dose level High, time 7 day
[7] = 1000 mg/kg, […], dose level High, time 14 day
[8] = 1000 mg/kg, […], dose level High, time 28 day

## CCOc1ccc(NC(=O)CC(C)O)cc1 (centres undefined) [BUCETIN]
[1]
  TERMINAL_BW: 247.8 g
  APTT: 18.9 s
  Bas: 0%
  Eos: 1.2%
  Fbg: 291.2 mg/dL
  Hb: 13.1 g/dL
  Ht: 39.1%
  Lym: 72.8%
  MCH: 20.5 pg
  MCHC: 33.4%
  MCV: 61.3 fL
  Mono: 3.4%
  Neu: 21.6%
  PT: 14.2 s
  Plat: 123.5 x10_4/uL
  RBC: 638.8 x10_4/ul
  Ret: 6.8%
  WBC: 109.9 x10_2/uL
  KIDNEY_L: 1 g
  KIDNEY_R: 1 g
  KIDNEY_TOTAL: 2 g
  LIVER: 11.7 g
  A/G: 0.9
  ALP: 1855.6 IU/L
  ALT: 39.2 IU/L
  AST: 68.2 IU/L
  BUN: 15.2 mg/dL
  CRE: 0.2 mg/dL
  Ca: 10.8 mg/dL
  Cl: 104.8 meq/L
  DBIL: 0.024 mg/dL
  GLC: 184 mg/dL
  IP: 6.9 mg/dL
  K: 4.2 meq/L
  LDH: 99.6 IU/L
  Na: 143.4 meq/L
  PL: 164.2 mg/dL
  RALB: 2.7 g/dL
  TBIL: 0.052 mg/dL
  TC: 82.8 mg/dL
  TG: 116.2 mg/dL
  TP: 5.8 g/dL
  gamma-GTP: 1 IU/L
[2]
  TERMINAL_BW: 289.1 g
  APTT: 16.1 s
  Bas: 0%
  Eos: 1%
  Fbg: 278.6 mg/dL
  Hb: 13.4 g/dL
  Ht: 39.6%
  Lym: 74%
  MCH: 21.1 pg
  MCHC: 33.7%
  MCV: 62.5 fL
  Mono: 2.8%
  Neu: 21.6%
  PT: 14 s
  Plat: 120 x10_4/uL
  RBC: 634.2 x10_4/ul
  Ret: 6.8%
  WBC: 107.3 x10_2/uL
  KIDNEY_L: 1.2 g
  KIDNEY_R: 1.1 g
  KIDNEY_TOTAL: 2.3 g
  LIVER: 13.6 g
  A/G: 0.8
  ALP: 1676.6 IU/L
  ALT: 42.4 IU/L
  AST: 67.4 IU/L
  BUN: 15.8 mg/dL
  CRE: 0.2 mg/dL
  Ca: 11 mg/dL
  Cl: 105.2 meq/L
  DBIL: 0.018 mg/dL
  GLC: 190.6 mg/dL
  IP: 6.6 mg/dL
  K: 4.2 meq/L
  LDH: 115.2 IU/L
  Na: 143.8 meq/L
  PL: 178 mg/dL
  RALB: 2.7 g/dL
  TBIL: 0.04 mg/dL
  TC: 91.2 mg/dL
  TG: 131.2 mg/dL
  TP: 5.9 g/dL
  gamma-GTP: 1 IU/L
[3]
  TERMINAL_BW: 360.7 g
  APTT: 15.9 s
  Bas: 0%
  Eos: 1%
  Fbg: 312 mg/dL
  Hb: 14.4 g/dL
  Ht: 42.4%
  Lym: 75.2%
  MCH: 20.8 pg
  MCHC: 34.1%
  MCV: 61 fL
  Mono: 2.4%
  Neu: 21.2%
  PT: 13.8 s
  Plat: 113 x10_4/uL
  RBC: 695.6 x10_4/ul
  Ret: 4.7%
  WBC: 106.6 x10_2/uL
  KIDNEY_L: 1.4 g
  KIDNEY_R: 1.4 g
  KIDNEY_TOTAL: 2.7 g
  LIVER: 17.2 g
  A/G: 0.8
  ALP: 1729.4 IU/L
  ALT: 34.2 IU/L
  AST: 63 IU/L
  BUN: 15 mg/dL
  CRE: 0.2 mg/dL
  Ca: 11.2 mg/dL
  Cl: 104 meq/L
  DBIL: 0.02 mg/dL
  GLC: 189.4 mg/dL
  IP: 6.9 mg/dL
  K: 4 meq/L
  LDH: 72.8 IU/L
  Na: 143.4 meq/L
  PL: 179.2 mg/dL
  RALB: 2.8 g/dL
  TBIL: 0.048 mg/dL
  TC: 79.8 mg/dL
  TG: 208.6 mg/dL
  TP: 6.3 g/dL
  gamma-GTP: 1 IU/L
[4]
  TERMINAL_BW: 431.8 g
  APTT: 18.8 s
  Bas: 0%
  Eos: 1.4%
  Fbg: 274 mg/dL
  Hb: 14.7 g/dL
  Ht: 42.6%
  Lym: 74.6%
  MCH: 19.3 pg
  MCHC: 34.5%
  MCV: 56 fL
  Mono: 2.2%
  Neu: 20.6%
  PT: 14.1 s
  Plat: 106.2 x10_4/uL
  RBC: 760 x10_4/ul
  Ret: 3.5%
  WBC: 138.7 x10_2/uL
  KIDNEY_L: 1.6 g
  KIDNEY_R: 1.6 g
  KIDNEY_TOTAL: 3.2 g
  LIVER: 18.4 g
  A/G: 0.8
  ALP: 1081.4 IU/L
  ALT: 39 IU/L
  AST: 62.4 IU/L
  BUN: 15.2 mg/dL
  CRE: 0.3 mg/dL
  Ca: 11.2 mg/dL
  Cl: 104.8 meq/L
  DBIL: 0.028 mg/dL
  GLC: 188.8 mg/dL
  IP: 6.3 mg/dL
  K: 3.8 meq/L
  LDH: 78.8 IU/L
  Na: 145.4 meq/L
  PL: 170.6 mg/dL
  RALB: 2.8 g/dL
  TBIL: 0.07 mg/dL
  TC: 77.2 mg/dL
  TG: 188.2 mg/dL
  TP: 6.3 g/dL
  gamma-GTP: 1 IU/L
[5]
  TERMINAL_BW: 228.7 g
  APTT: 18.5 s
  Bas: 0%
  Eos: 0.8%
  Fbg: 270.2 mg/dL
  Hb: 12.8 g/dL
  Ht: 38.4%
  Lym: 72.6%
  MCH: 20.7 pg
  MCHC: 33.4%
  MCV: 61.9 fL
  Mono: 2.8%
  Neu: 22.6%
  PT: 14.1 s
  Plat: 123.8 x10_4/uL
  RBC: 620 x10_4/ul
  Ret: 2.9%
  WBC: 111.1 x10_2/uL
  KIDNEY_L: 1.1 g
  KIDNEY_R: 1 g
  KIDNEY_TOTAL: 2.1 g
  LIVER: 11.8 g
  A/G: 0.9
  ALP: 1511.6 IU/L
  ALT: 41.2 IU/L
  AST: 74 IU/L
  BUN: 15.4 mg/dL
  CRE: 0.2 mg/dL
  Ca: 10.6 mg/dL
  Cl: 106.8 meq/L
  DBIL: 0.028 mg/dL
  GLC: 168 mg/dL
  IP: 6.2 mg/dL
  K: 4.3 meq/L
  LDH: 76 IU/L
  Na: 144.6 meq/L
  PL: 161.4 mg/dL
  RALB: 2.6 g/dL
  TBIL: 0.06 mg/dL
  TC: 78.6 mg/dL
  TG: 102.2 mg/dL
  TP: 5.6 g/dL
  gamma-GTP: 1.2 IU/L
[6]
  TERMINAL_BW: 268.8 g
  APTT: 20.3 s
  Bas: 0%
  Eos: 1%
  Fbg: 270.6 mg/dL
  Hb: 12.7 g/dL
  Ht: 38.7%
  Lym: 67.2%
  MCH: 21 pg
  MCHC: 32.9%
  MCV: 64 fL
  Mono: 3.4%
  Neu: 27.6%
  PT: 14.3 s
  Plat: 126.9 x10_4/uL
  RBC: 606 x10_4/ul
  Ret: 9.2%
  WBC: 166.9 x10_2/uL
  KIDNEY_L: 1.1 g
  KIDNEY_R: 1.1 g
  KIDNEY_TOTAL: 2.3 g
  LIVER: 12.7 g
  A/G: 0.8
  ALP: 1387.6 IU/L
  ALT: 50 IU/L
  AST: 79.4 IU/L
  BUN: 16 mg/dL
  CRE: 0.2 mg/dL
  Ca: 10.9 mg/dL
  Cl: 106.2 meq/L
  DBIL: 0.032 mg/dL
  GLC: 180.8 mg/dL
  IP: 6.6 mg/dL
  K: 4.4 meq/L
  LDH: 97.4 IU/L
  Na: 144.4 meq/L
  PL: 162.8 mg/dL
  RALB: 2.8 g/dL
  TBIL: 0.08 mg/dL
  TC: 74.6 mg/dL
  TG: 133.4 mg/dL
  TP: 6 g/dL
  gamma-GTP: 1 IU/L
[7]
  TERMINAL_BW: 329.1 g
  APTT: 21.6 s
  Bas: 0.8%
  Eos: 0.6%
  Fbg: 295.4 mg/dL
  Hb: 12.9 g/dL
  Ht: 39.7%
  Lym: 69.2%
  MCH: 22.9 pg
  MCHC: 32.7%
  MCV: 70.1 fL
  Mono: 3%
  Neu: 26.2%
  PT: 14.3 s
  Plat: 126.3 x10_4/uL
  RBC: 567.8 x10_4/ul
  Ret: 10.4%
  WBC: 123.6 x10_2/uL
  KIDNEY_L: 1.3 g
  KIDNEY_R: 1.3 g
  KIDNEY_TOTAL: 2.7 g
  LIVER: 14.6 g
  A/G: 0.8
  ALP: 1241.8 IU/L
  ALT: 42.6 IU/L
  AST: 73.4 IU/L
  BUN: 14.2 mg/dL
  CRE: 0.2 mg/dL
  Ca: 10.8 mg/dL
  Cl: 105.8 meq/L
  DBIL: 0.036 mg/dL
  GLC: 170.4 mg/dL
  IP: 6.5 mg/dL
  K: 4.4 meq/L
  LDH: 97.8 IU/L
  Na: 143.6 meq/L
  PL: 150.8 mg/dL
  RALB: 2.8 g/dL
  TBIL: 0.1 mg/dL
  TC: 71.6 mg/dL
  TG: 91.2 mg/dL
  TP: 6.1 g/dL
  gamma-GTP: 1 IU/L
[8]
  TERMINAL_BW: 402.4 g
  APTT: 19.3 s
  Bas: 0.6%
  Eos: 1.2%
  Fbg: 278.2 mg/dL
  Hb: 14.3 g/dL
  Ht: 42.1%
  Lym: 78.2%
  MCH: 23.2 pg
  MCHC: 34%
  MCV: 68.4 fL
  Mono: 2.2%
  Neu: 17.4%
  PT: 14.4 s
  Plat: 102.2 x10_4/uL
  RBC: 618.4 x10_4/ul
  Ret: 8%
  WBC: 137.4 x10_2/uL
  KIDNEY_L: 1.6 g
  KIDNEY_R: 1.5 g
  KIDNEY_TOTAL: 3.1 g
  LIVER: 17.3 g
  A/G: 0.8
  ALP: 1352.6 IU/L
  ALT: 36.4 IU/L
  AST: 65 IU/L
  BUN: 16.8 mg/dL
  CRE: 0.3 mg/dL
  Ca: 11 mg/dL
  Cl: 104 meq/L
  DBIL: 0.042 mg/dL
  GLC: 182.2 mg/dL
  IP: 6.5 mg/dL
  K: 4 meq/L
  LDH: 93.4 IU/L
  Na: 143.8 meq/L
  PL: 155.8 mg/dL
  RALB: 2.9 g/dL
  TBIL: 0.1 mg/dL
  TC: 71.2 mg/dL
  TG: 117.2 mg/dL
  TP: 6.4 g/dL
  gamma-GTP: 1.4 IU/L
